This is an account of results in patent US8524755B2 (priority 2009, dated 2013).

The target in one series is T1, Cannabinoid CB1 (h) (Homo sapiens, UniProt P21554).
T1 construct: expressed in transfected cells; host or cells: CHO cells
Put plainly: Binding CB1 (h) (ag). The conditions noted are these: read-out: % Inhibition of Control Specific Binding @ 10 μM. Here is the method:
(§1) Radioligand binding assay methods utilized to measure the activity of compounds of the invention will be familiar to those skilled in the art. In each assay case, the assay components such as, for example, the cell-type, ligand, reference compound and the like, will be familiar to practitioners of such an assay.
(§2) Analysis and Expression of Results: Compounds of the invention were tested in the biochemical assays and percent inhibition of specific binding was determined. The specific ligand binding to the receptors is defined as the difference between the total binding and the nonspecific binding determined in the presence of an excess of unlabelled ligand. The results are expressed as a percent inhibition of control specific binding (100−((measured specific binding/control specific binding)×100)) obtained in the presence of test compounds.

For a further series, the target named is T2, NOP (ORL1) (h) (Homo sapiens, UniProt P41146).
T2 construct: expressed in transfected cells; host or cells: HEK-293 cells
T2 sequence (P41146 whole entry): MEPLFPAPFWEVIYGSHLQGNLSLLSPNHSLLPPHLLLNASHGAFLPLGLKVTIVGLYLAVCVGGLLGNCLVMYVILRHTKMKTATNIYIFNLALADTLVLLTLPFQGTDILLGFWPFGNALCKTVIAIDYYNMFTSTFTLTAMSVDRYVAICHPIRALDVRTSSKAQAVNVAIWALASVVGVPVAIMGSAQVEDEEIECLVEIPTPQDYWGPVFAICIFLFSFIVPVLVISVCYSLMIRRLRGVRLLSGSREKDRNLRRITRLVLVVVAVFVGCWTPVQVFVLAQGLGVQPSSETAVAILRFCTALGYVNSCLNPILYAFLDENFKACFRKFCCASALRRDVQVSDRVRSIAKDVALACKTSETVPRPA
Put plainly: Binding NOP (ORL1) (h) (ag). The conditions noted are these: read-out: % Inhibition of Control Specific Binding @ 10 μM. Here is the method:
as §1, §2

A further series addresses T3, Histamine H1 (h) (Homo sapiens, UniProt P35367).
T3 construct: expressed in transfected cells; host or cells: HEK-293 cells
The series is described as follows: Binding H1 (h) (aa). To be noted: read-out: % Inhibition of Control Specific Binding @ 10 μM. Here is the method:
as §1, §2

A further series has as its target T4, 5-HT transporter (h) (Homo sapiens, UniProt P31645).
T4 construct: expressed in transfected cells; host or cells: CHO cells
Put plainly: Binding 5-HT transporter (h) (aa). To be noted: read-out: % Inhibition of Control Specific Binding @ 10 μM. Here is the method:
as §1, §2

Another series has as its target T5, PDE2A (h) (Homo sapiens, UniProt O00408).
T5 construct: host or cells: Sf9 cells
The series is described as follows: Enzyme assay PDE2A (h). It counts as biochemical. The conditions noted are these: read-out: % Inhibition of Control Values @ 10 μM. From the text: (§3) The enzyme assays provided below will be familiar to those skilled in the art.
(§4) Analysis and Expression of Results: The results are expressed as a percent of control specific activity ((measured specific activity/control specific activity)×100) obtained in the presence of the test compounds.

Series [1] has as its target T6, choline transporter (CHT1) (h) (Homo sapiens, UniProt Q9GZV3).
T6 construct: expressed in transfected cells; host or cells: CHO cells
T6 sequence (Q9GZV3 1-580): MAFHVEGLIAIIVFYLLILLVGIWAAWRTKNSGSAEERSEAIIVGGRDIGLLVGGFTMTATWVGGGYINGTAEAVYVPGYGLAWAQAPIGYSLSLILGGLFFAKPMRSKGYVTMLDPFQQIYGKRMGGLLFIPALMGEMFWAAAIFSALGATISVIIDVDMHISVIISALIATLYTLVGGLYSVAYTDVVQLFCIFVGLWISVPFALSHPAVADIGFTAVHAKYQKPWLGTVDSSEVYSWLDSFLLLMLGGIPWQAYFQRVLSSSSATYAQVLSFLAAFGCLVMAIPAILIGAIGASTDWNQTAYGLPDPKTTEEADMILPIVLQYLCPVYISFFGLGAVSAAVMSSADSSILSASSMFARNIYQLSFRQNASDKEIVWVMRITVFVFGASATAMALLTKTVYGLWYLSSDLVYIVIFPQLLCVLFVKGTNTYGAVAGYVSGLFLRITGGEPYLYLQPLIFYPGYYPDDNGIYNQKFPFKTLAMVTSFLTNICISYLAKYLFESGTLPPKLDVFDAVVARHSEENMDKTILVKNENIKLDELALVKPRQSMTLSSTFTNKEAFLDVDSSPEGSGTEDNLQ
The series is described as follows: Binding choline transporter (CHT1) (h) (aa). To be noted: read-out: % Inhibition of Control Specific Binding @ 10 μM. Here is the method:
as §1, §2

The target in another series is T7, hERG (Homo sapiens, UniProt Q12809).
T7 construct: expressed in transfected cells; host or cells: HEK-293 cells
T7 sequence (Q12809 whole entry): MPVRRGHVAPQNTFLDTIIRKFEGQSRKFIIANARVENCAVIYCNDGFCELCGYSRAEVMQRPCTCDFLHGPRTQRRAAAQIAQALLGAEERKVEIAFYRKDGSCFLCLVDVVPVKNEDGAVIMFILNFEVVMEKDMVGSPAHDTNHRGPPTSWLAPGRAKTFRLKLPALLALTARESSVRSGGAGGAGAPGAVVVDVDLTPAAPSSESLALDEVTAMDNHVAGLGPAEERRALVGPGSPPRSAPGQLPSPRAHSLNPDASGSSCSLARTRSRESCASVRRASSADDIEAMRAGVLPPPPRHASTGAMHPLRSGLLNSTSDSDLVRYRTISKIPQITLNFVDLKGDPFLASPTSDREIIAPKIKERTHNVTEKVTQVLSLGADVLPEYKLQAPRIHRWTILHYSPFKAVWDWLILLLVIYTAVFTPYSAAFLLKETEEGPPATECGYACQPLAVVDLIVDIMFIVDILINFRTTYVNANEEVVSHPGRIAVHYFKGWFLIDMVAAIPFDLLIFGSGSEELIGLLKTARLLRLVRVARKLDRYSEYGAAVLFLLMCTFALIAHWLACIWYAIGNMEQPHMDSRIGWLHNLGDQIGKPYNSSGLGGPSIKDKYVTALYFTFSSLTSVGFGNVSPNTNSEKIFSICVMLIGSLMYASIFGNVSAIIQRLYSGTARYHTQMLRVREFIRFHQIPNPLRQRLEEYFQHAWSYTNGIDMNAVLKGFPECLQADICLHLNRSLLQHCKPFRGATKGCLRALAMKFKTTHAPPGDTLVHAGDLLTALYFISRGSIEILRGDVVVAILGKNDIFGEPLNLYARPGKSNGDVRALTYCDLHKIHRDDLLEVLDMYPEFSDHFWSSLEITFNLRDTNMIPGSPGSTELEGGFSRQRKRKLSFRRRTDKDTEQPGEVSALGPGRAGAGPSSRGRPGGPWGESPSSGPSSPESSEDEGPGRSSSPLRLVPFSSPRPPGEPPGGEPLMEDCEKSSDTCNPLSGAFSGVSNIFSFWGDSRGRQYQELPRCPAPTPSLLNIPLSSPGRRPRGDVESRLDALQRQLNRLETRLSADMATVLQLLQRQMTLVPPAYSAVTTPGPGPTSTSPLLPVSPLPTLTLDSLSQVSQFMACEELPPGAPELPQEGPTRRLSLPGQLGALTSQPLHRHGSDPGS
Put plainly: Binding hERG (membrane preparation) (aa). The conditions noted are these: read-out: % Inhibition of Control Specific Binding @ 10 μM. Here is the method:
as §1, §2

Series [2] relates to Benzodiazepine BZD (central). Put plainly: Binding BZD (central) (ag). Also noted: species or system rat. Here is the method: as §1, §2
For series [3], the target named is T8, Cholecystokinin CCK1 (CCKA) (h) (Homo sapiens, UniProt P32238).
T8 construct: expressed in transfected cells; host or cells: CHO cells
T8 sequence (P32238 1-428): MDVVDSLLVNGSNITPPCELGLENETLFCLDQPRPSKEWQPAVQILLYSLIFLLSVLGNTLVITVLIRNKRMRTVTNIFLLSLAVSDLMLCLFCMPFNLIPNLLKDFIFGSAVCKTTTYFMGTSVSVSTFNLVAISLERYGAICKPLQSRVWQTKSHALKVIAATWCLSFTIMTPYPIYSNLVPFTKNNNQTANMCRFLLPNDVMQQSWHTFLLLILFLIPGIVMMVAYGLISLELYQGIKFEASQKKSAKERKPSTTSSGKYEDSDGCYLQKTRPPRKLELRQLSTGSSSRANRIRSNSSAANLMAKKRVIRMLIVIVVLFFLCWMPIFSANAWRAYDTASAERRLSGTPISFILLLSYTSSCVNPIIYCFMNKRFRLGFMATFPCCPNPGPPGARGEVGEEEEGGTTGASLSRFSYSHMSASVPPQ
Put plainly: Binding CCK1 (CCKA) (h) (ag). To be noted: read-out: % Inhibition of Control Specific Binding @ 10 μM. Here is the method:
as §1, §2

In a further series the test system is NMDA. The series is described as follows: Binding NMDA (aa). Also noted: species or system rat. The protocol: as §1, §2
The test system of another series is PDE5 (h) (ns). The series is described as follows: Enzyme assay PDE5 (h) (ns). The class given is biochemical, human.
Source text: as §3, §4

The subject of series [4] is Ca^2+ channel (L, diltiazem site) (benzothiazepines). The series is described as follows: Binding Ca2+ channel (L, diltiazem site) (aa). Also noted: species or system rat. Here is the method: as §1, §2
For the next series, the target named is T9, Glucocorticoid GR (h) (Homo sapiens, UniProt P04150).
T9 construct: IM-9 cells (cytosol); endogenous in cells; host or cells: IM-9 cells (cytosol)
T9 sequence (P04150 1-777): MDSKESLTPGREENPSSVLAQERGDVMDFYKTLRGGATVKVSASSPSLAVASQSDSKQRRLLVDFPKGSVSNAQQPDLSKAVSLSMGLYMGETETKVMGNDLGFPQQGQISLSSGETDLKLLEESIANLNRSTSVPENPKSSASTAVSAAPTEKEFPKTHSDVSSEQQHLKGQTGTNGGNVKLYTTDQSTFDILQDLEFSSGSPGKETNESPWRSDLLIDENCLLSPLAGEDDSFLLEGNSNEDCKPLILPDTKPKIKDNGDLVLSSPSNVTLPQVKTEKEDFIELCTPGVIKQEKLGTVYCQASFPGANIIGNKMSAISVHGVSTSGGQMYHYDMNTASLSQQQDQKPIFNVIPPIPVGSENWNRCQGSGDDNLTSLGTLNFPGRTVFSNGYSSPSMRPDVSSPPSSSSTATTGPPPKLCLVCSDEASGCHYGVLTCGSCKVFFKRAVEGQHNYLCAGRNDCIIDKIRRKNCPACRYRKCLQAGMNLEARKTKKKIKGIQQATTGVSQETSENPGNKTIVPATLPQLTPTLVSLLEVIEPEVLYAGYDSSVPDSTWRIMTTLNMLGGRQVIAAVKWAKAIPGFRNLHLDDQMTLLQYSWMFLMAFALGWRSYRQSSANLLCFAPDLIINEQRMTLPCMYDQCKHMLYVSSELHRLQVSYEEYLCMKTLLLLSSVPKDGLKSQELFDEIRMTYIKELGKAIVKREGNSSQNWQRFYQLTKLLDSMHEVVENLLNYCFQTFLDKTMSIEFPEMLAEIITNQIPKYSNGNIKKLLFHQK
Put plainly: Binding GR (h) (ag). To be noted: read-out: % Inhibition of Control Specific Binding @ 10 μM. Here is the method: as §1, §2

SMILES strings stand for the structures.

T5 sequence (O00408 whole entry): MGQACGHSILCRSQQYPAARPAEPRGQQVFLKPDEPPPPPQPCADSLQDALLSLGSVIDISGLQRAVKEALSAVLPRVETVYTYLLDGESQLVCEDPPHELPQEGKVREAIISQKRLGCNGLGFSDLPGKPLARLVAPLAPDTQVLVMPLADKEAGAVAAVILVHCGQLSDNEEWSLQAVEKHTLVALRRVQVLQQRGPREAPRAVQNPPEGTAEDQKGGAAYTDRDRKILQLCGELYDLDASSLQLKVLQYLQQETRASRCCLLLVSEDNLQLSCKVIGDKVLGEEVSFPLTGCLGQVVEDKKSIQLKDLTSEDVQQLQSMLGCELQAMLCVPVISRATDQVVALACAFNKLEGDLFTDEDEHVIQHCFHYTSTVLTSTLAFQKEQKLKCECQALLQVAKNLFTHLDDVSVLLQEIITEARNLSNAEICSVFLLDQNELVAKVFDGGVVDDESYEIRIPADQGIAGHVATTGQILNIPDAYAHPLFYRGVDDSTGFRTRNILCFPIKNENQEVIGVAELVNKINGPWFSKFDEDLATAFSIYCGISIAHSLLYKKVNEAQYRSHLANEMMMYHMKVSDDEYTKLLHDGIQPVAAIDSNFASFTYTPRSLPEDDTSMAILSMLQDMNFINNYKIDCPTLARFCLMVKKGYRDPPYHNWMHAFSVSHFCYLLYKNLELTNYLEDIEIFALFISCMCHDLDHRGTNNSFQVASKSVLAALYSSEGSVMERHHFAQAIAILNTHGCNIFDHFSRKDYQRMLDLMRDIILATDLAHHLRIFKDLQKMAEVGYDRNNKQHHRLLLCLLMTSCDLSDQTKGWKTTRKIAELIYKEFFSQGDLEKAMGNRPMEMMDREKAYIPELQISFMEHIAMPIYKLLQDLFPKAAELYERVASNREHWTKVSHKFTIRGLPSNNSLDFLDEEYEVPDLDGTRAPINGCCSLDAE
T4 sequence (P31645 whole entry): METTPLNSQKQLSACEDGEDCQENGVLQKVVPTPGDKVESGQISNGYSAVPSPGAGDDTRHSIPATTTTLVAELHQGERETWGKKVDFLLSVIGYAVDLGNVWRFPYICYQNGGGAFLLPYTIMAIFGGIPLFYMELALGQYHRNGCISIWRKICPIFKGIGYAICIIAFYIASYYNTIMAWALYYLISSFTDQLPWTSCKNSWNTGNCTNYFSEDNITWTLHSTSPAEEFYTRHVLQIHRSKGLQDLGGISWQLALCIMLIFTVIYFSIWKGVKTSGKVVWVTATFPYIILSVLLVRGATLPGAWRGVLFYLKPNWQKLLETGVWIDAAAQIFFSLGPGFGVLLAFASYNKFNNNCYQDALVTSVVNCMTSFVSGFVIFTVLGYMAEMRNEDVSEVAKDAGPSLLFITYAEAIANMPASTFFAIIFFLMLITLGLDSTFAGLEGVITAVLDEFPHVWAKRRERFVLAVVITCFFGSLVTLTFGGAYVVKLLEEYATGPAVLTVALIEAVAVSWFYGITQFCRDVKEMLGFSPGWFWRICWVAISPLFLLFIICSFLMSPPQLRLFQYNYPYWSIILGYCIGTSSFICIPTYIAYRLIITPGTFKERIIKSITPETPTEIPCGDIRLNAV
T1 sequence (P21554 whole entry): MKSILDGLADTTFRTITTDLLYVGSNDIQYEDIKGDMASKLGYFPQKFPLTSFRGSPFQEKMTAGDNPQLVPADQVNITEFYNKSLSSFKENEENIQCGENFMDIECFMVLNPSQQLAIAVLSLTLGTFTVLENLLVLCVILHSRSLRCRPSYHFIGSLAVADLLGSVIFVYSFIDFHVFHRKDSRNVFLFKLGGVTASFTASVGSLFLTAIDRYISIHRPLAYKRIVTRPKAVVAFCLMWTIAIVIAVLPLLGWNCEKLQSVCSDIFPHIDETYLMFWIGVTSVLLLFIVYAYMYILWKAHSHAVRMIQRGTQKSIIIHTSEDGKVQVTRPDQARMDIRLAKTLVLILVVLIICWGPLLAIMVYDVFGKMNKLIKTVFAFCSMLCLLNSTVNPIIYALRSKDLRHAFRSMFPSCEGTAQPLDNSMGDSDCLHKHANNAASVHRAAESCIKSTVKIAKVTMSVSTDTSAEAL
T3 sequence (P35367 whole entry): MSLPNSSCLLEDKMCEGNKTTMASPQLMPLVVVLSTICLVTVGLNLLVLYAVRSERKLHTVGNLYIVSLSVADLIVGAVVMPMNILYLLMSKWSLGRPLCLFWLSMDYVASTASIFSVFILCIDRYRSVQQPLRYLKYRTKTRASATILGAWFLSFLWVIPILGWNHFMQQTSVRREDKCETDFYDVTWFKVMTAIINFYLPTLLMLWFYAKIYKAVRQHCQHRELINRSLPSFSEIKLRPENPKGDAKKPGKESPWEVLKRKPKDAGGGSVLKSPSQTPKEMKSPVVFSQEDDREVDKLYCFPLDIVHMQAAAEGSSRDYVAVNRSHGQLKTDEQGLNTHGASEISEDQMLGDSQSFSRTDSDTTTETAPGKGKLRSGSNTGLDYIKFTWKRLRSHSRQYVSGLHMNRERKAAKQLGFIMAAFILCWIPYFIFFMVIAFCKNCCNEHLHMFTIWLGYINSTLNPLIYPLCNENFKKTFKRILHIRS

As to `CC1(C)C(=O)N(c2ccc(C#N)c(C(F)(F)F)c2)C(=O)N1c1ccc(C(N)=O)c(F)c1` [(MIII), 4-(3-(4-cyano-3-(trifluoromethyl)phenyl)-5,5-dimethyl-2,4-dioxoimidazolidin-1-yl)-2-fluorobenzamide], the inhibition at 10 µM is 6% at Cannabinoid CB1 (h); 0% at NOP (ORL1) (h); -2% at Histamine H1 (h); 13% at 5-HT transporter (h); 2% at PDE2A (h); -13% in series [1]. Further, the inhibition at 10 µM at hERG was 8%; in series [3], -14%; on Glucocorticoid GR (h) it was 0%. Also, the “% Inhibition of Control Specific Binding @ 10 μM” value in series [2] was −20%; with NMDA, 0%; in series [4], −2%. The “% Inhibition of Control Values @ 10 μM” value in the series with PDE5 (h) (ns) is reported as 8%.

Turning to `CNC(=O)c1ccc(N2C(=O)N(c3ccc(C#N)c(C(F)(F)F)c3)C(=O)C2(C)C)cc1F` [(MIV), 4-(3-(4-cyano-3-(trifluoromethyl)phenyl)-5,5-dimethyl-2,4-dioxoimidazolidin-1-yl)-2-fluoro-N-methylbenzamide], the inhibition at 10 µM is 4% on Cannabinoid CB1 (h); -2% on NOP (ORL1) (h); -11% at Histamine H1 (h); 18% on 5-HT transporter (h); 0% on PDE2A (h); 10% in [1]. The inhibition at 10 µM is 10% on hERG, 25% in series [3] and 4% at Glucocorticoid GR (h). The “% Inhibition of Control Specific Binding @ 10 μM” value is reported as −29% in [2], −41% with NMDA and 1% in [4]. Moreover, the “% Inhibition of Control Values @ 10 μM” value in the series on PDE5 (h) (ns) was 2%.

For the molecule `CC1(C)C(=O)N(c2ccc(C#N)c(C(F)(F)F)c2)C(=S)N1c1ccc(C(N)=O)c(F)c1` [(MII), 4-(3-(4-Cyano-3-(trifluoromethyl)phenyl)-5,5-dimethyl-4-oxo-2-thioxoimidazolidin-1-yl)-2-fluorobenzamide], the inhibition at 10 µM is 11% at Cannabinoid CB1 (h); -4% at NOP (ORL1) (h); 2% at Histamine H1 (h); 16% on 5-HT transporter (h); 2% on PDE2A (h); -22% in series [1]. Further, the inhibition at 10 µM at hERG turned out to be 7%; in [3], 0%; at Glucocorticoid GR (h) it was 30%. The “% Inhibition of Control Specific Binding @ 10 μM” value in [2] is given as −37%; in the series on NMDA, 5%; in [4] it was 22%. In addition, the “% Inhibition of Control Values @ 10 μM” value in the series with PDE5 (h) (ns) was −1%.

Turning to `CC1(C)C(=O)N(c2ccc(C#N)c(C(F)(F)F)c2)C(=S)N1c1ccc(C(=O)O)c(F)c1` [(MI), 4-(3-(4-cyano-3-(trifluoromethyl)phenyl)-5,5-dimethyl-4-oxo-2-thioxoimidazolidin-1-yl)-2-fluorobenzoic acid], the inhibition at 10 µM at Cannabinoid CB1 (h) was -20%; on NOP (ORL1) (h), -10%; on Histamine H1 (h) it was -8%; at 5-HT transporter (h) it was 1%; on PDE2A (h) it was 12%; in [1], -16%. For the same molecule, the inhibition at 10 µM on hERG was -39%; in [3], 47%; on Glucocorticoid GR (h) it was 5%. In addition, the results for the “% Inhibition of Control Specific Binding @ 10 μM” value (in series [2]; in the series on NMDA; in series [4]) were −35%, 2% and 2%, respectively. The “% Inhibition of Control Values @ 10 μM” value in the series with PDE5 (h) (ns) was 4%.
